Measurements as given in the supplement of paper PMC10307832.

Legend:
Assay in all cases: relative viability (nuclei count vs DMSO), 5 days (fraction); higher = more cells survive
[1] = compound: C[As](C)SC[C@H](NC(=O)CC[C@H](N)C(=O)O)C(=O)NCC(=O)O [Darinaparsin] + CC(=O)c1c(C)c2cnc(Nc3ccc(N4CCNCC4)cn3)nc2n(C2CCCC2)c1=O [Palbociclib] (partner 0.5 µM)
In short: (§1)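 Lung cancer cell lines were seeded in 1536-well plates and dosed by pin tool the next day, with either a single drug or a fixed anchor-drug dose combined with five library-drug doses (not always all listed) spaced in √10 steps. Five days later, one step fixed the cells and stained their nuclei (final 0.05% Triton X-100, 1% formaldehyde, 1 ug/ml Hoechst), and nuclei were counted on 4× images. Relative viability is the nuclei count in treated wells divided by the count in vehicle wells, and each value is the median of duplicate plates.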

QS11 + Palbociclib = compound: C1CC2=C(C1)C=C(C=C2)OC3=NC(=C4C(=N3)N(C=N4)CC5=CC=C(C=C5)C6=CC=CC=C6)N[C@@H](CC7=CC=CC=C7)CO [QS11] + CC(=O)c1c(C)c2cnc(Nc3ccc(N4CCNCC4)cn3)nc2n(C2CCCC2)c1=O [Palbociclib] (partner 0.5 µM)
In short: as §1

QS11 + Pemetrexed = compound: C1CC2=C(C1)C=C(C=C2)OC3=NC(=C4C(=N3)N(C=N4)CC5=CC=C(C=C5)C6=CC=CC=C6)N[C@@H](CC7=CC=CC=C7)CO [QS11] + Nc1nc2[nH]cc(CCc3ccc(C(=O)N[C@@H](CCC(=O)O)C(=O)O)cc3)c2c(=O)[nH]1 [Pemetrexed] (partner 0.2 µM)
In short: as §1

QS11 + Lapatinib = compound: C1CC2=C(C1)C=C(C=C2)OC3=NC(=C4C(=N3)N(C=N4)CC5=CC=C(C=C5)C6=CC=CC=C6)N[C@@H](CC7=CC=CC=C7)CO [QS11] + CS(=O)(=O)CCNCc1ccc(-c2ccc3ncnc(Nc4ccc(OCc5cccc(F)c5)c(Cl)c4)c3c2)o1 [Lapatinib] (partner 2 µM)
In short: as §1

[2] = compound: C[As](C)SC[C@H](NC(=O)CC[C@H](N)C(=O)O)C(=O)NCC(=O)O [Darinaparsin] + CCNC(=O)c1noc(-c2cc(C(C)C)c(O)cc2O)c1-c1ccc(CN2CCOCC2)cc1 [Luminespib] (partner 0.01 µM)
In short: as §1

Work on LCLC-97TM1 yielded a relative viability ([1]; first compound 0.08 µM) of 0.317, a relative viability ([1]; first compound 0.8 µM) of 0.2 and a relative viability ([1]; first compound 2.53 µM) of 0.237. For the same cell line, the relative viability ([1]; first compound 8 µM) was 0.251, the relative viability (QS11 + Palbociclib; first compound 0.253 µM) was 0.204 and the relative viability (QS11 + Palbociclib; first compound 2.53 µM) was 0.213. For the same cell line, the relative viability (QS11 + Palbociclib; first compound 8 µM) was 0.277, the relative viability (QS11 + Pemetrexed; first compound 0.253 µM) was 0.167 and the relative viability (QS11 + Pemetrexed; first compound 2.53 µM) was 0.182. For the same cell line, the relative viability (QS11 + Pemetrexed; first compound 8 µM) was 0.202, the relative viability (QS11 + Lapatinib; first compound 0.08 µM) was 0.484 and the relative viability (QS11 + Lapatinib; first compound 0.253 µM) was 1.12. It also gave a relative viability (QS11 + Lapatinib; first compound 0.8 µM) of 0.96, a relative viability (QS11 + Lapatinib; first compound 2.53 µM) of 1.24 and a relative viability (QS11 + Lapatinib; first compound 8 µM) of 0.673. The relative viability ([2]; first compound 0.08 µM) was 0.939, the relative viability ([2]; first compound 0.8 µM) was 0.659 and the relative viability ([2]; first compound 2.53 µM) was 0.699. It also gave a relative viability ([2]; first compound 8 µM) of 0.888.
